{
  "source": "patent US20230271950A1",
  "about": "“ANTIBACTERIAL PICOLINAMIDE COMPOUNDS” (University of Notre Dame Du Lac, priority 2020, published 2023)",
  "key": {"[1]": {"system": "C. difficile strain ATCC43255", "assay": "Serial passage for development of resistance", "type": "cell-based, Clostridioides difficile", "details": "for increase of MIC on serial passage: C. difficile ATCC43255, 25 passages; for MIC: Clostridioides difficile"}, "[2]": {"assay": "Pharmacokinetics study in mice (plasma and feces levels)", "type": "in vivo", "details": "for concentration at 8 h: female, CD-1, mouse", "protocol": "Pharmacokinetics (PK) study. Mice (n=2 per time point) were given a single 100 μL solution of 5 mg/mL of compound 1 (equivalent to 20 mg/kg). Terminal blood was collected in heparinized syringes by cardiac puncture at 30 min, 1 h, 2 h, 4 h, and 8 h. The two mice at the 8-h time point were place in metabolism cages for collection of feces. Compound 1 was dissolved in 5% DMSO/95% water with 96 mg/mL of sodium bicarbonate. Blood was centrifuged at 1,000 g for 20 min at 4° C. and plasma was separated and stored at −80° C. until analysis. A 45-μL aliquot of plasma was mixed with 5 μL of H2O:ACN (1:1) and was quenched with 100 μL of acetonitrile containing 20 μM of internal standard (compound 10). The sample was centrifuged at 21,000 g for 15 min at 4° C. to precipitate the proteins, and the resulting supernatant was analyzed by UPLC-TQD detector using multiple-reaction monitoring (MRM). Calibration curves for compound 1 were prepared from 0 to 102.4 μM using a control mouse plasma (50 μL). Peak area ratios relative to internal standard and linear regression was used from which the concentrations in plasma samples from the PK study were determined.\nAn average of 250 mg of feces were collected at 8 h from two mice, and subsequently homogenized with 6 times the feces volume (1,500 μL of H2O:ACN 1:1) using a Bullet Blender (Next Advance, Inc., Troy, N.Y.). The homogenate was centrifuged at 21,000 g for 5 min. The fecal supernatant (72 μL) was mixed with 8 μL of a solution of H2O:ACN (1:1) and 40 μL of 50 μM of the internal standard in ACN with 0.5% formic acid. A calibration curve was prepared from 0 μM to 102.4 μM in control mouse feces. Plasma and feces were analyzed on a Waters TQD tandem quadrupole detector (Waters Corporation, Milford, Mass.) using a YMC-Triart C18 100 mm×2.0 mm column (3μ, YMC Co. Ltd, Kyoto, Japan). The chromatographic conditions consisted of elution with 30% H2O/70% ACN containing 0.10% formic acid for 5 min at a flow rate 0.5 mL/min. Mass Spectrometry acquisition was performed in the positive electrospray ionization mode with MRM. The capillary, cone, extractor and RF lens voltages were set at 2.8 kV, 40 V, 1 V and 0.1 V, respectively. The desolvation and cone gas (nitrogen) flow rates were 650 L/h and 50 L/h, respectively. The source temperature was set at 150° C. The desolvation temperature was 350° C. The MRM transitions used were 459.4→254.0 for compound 1, and 294.8→133.5 for the internal standard.\n(§1) Animals. Female C57BL/6 mice weighing 18-20 g and 6-8 weeks of age were used for the efficacy study (Jackson, Bar Harbor, Me.). Female CD-1 mice (24-31 g and 7-8 weeks of age) were used for the PK study. They were housed in groups of five mice in sterile polycarbonate shoeboxes with bedding consisting of ¼-inch corncob (The Andersons Ind., Maumee, Ohio) and Alpha-Dri (Shepherd Specialty Papers, Inc., Richland, Mich.). Mice were maintained on a 12-h light/dark cycle at 72° F. and were given Teklad 2918 irradiated extruded rodent diet and water ad libitum. All procedures were performed in accordance with and approved by the University of Notre Dame Institutional Animal Care and Use Committee.\nPharmacokinetics (PK) Studies. Compounds 4, 87, 107, and 108 were dissolved in 10% DMSO, 25% propylene glycol, 15% Tween 80 and 50% water at concentrations of 5 mg/mL or 10 mg/mL. Compound 116 was dissolved in 5% DMSO, 95% water with 96 mg/mL of sodium bicarbonate. Mice (n=2 per time point) were given a single 100 μL oral gavage of the test compound (equivalent to either 10 mg/kg and/or 20 mg/kg), and terminal blood was collected in heparinized syringes by cardiac puncture at 30 min, 1 h, 2 h, 4 h, and 8 h. An average of 250 mg of feces were collected after 8 h from two mice housed in metabolism cages in each group for further analysis. Blood was centrifuged at 1000 g for 2 min at 4° C. to obtain plasma. Plasma and fecal samples were stored at −80° C. until analysis. […]"}, "[3]": {"system": "stationary-phase C. difficile", "assay": "Time-kill assay, stationary-phase C. difficile", "type": "cell-based, Clostridioides difficile", "details": "8×, 16×, and 32×MIC", "protocol": "Time-kill assay. […] A control tube without antibiotic was also included. At intervals of 4, 8, and 24 h, 100-μL aliquots of the cultures were plated onto pre-reduced brain heart infusion broth agar media for colony counts. […] The experiment was done in triplicate."}, "C. difficile ATCC43255": {"system": "C. difficile ATCC43255", "assay": "Scanning-electron microscopy of C. difficile vegetative cells", "type": "cell-based, Clostridioides difficile", "details": "compound 1 at 4× to 32×MIC; VAN at 4×MIC", "protocol": "FIG. 2. Mechanism of action of compound 1. (A) Macromolecular biosynthesis assays: Compound 1 was incubated with C. difficile ATCC43255 at 0.5×MIC. […] The incubation time was 60 min for DNA, 120 min for peptidoglycan synthesis and RNA, and 180 min for protein synthesis. (B-G) Imaging of C. difficile […] vegetative cells (logarithmic growth) by scanning electron microscopy.\nScanning-electron microscopy. […] Following incubation, the cells were washed with PBS (3×) and applied onto poly-1-lysine (Santa Cruz Biotechnology, Dallas, Tex.) coated microglass coverslips (Electron Microscopy Sciences, Hatfield, Pa.) and incubated for 15 min. The cells were fixed for 1 h with 2% glutaraldehyde, followed by a wash (3×) with sodium cacodylate buffer at pH 7.4. The samples were fixed with 1% osmium tetroxide for 1 h and rinsed (3×) in the buffer. The samples were then put through a graded ethanol series for dehydration, followed by critical point drying. The samples were then mounted on SEM stubs and sputter-coated with iridium. Microscopy and imaging were performed on a Magellan 400 XHR instrument (FEI, Hillsboro, Oreg.)."}, "CDI": {"system": "CDI", "details": "patients treated with the antibiotic; cited from earlier work"}, "C. difficile ATCC 43255": {"system": "C. difficile ATCC 43255", "assay": "Mouse model of recurrent C. difficile infection", "type": "in vivo, mice", "details": "VAN 50 mg/kg oral once a day for 5 days; days 10-15", "protocol": "Next, compound 1 was evaluated in a mouse model of recurrent CDI.\nas §1\nC. difficile infection model. The recurrent C. difficile infection model reported by Chen et al. was used (Gastroenterology 2008, 135, 1984). […] Subsequently, mice were given a 10 mg/kg intraperitoneal injection of clindamycin. The following day, the mice were infected intragastrically with 10^4 CFU of C. difficile ATCC 43255. […] Body weights and survival were recorded for 25 days. The study was repeated a second time."}, "[4]": {"details": "20 mg/kg single oral administration"}, "[5]": {"details": "single oral gavage, dose 20 mg · kg^−1, feces collected after 8 h, read-out: Drug concentration in fecal samples (mg kg^−1 feces)"}},
  "note": "Like-named read-outs stand apart in the source and are kept apart here.",
  "data": [
    {"smiles": "O=C(O)c1ccc2oc(NC(=O)c3cc(Oc4cccc(OC(F)(F)F)c4)ccn3)nc2c1", "note": "[Compound 1, Sodium 2-(4-(3-(trifluoromethoxy)phenoxy)picolinamido)benzo[d]oxazole-5-carboxylate]", "values": [
      {"measurement": "increase of MIC on serial passage", "setting": "[1]", "value": 8, "unit": "fold"},
      {"measurement": "MIC", "setting": "[1]; ATCC43255, read-out: MIC after serial passage", "value": 1, "unit": "µg/mL"},
      {"measurement": "MIC", "setting": "[1]; ATCC43255, read-out: starting MIC in serial passage", "value": 0.125, "unit": "µg/mL"},
      {"measurement": "Concentrations in plasma", "setting": "[2]; [4]", "value": "non-quantifiable"},
      {"measurement": "levels in feces higher than the MIC for C. difficile ATCC 43255", "setting": "[2]; [4]", "value": "> 100", "unit": "fold"},
      {"measurement": "Conc. feces/MIC", "setting": "[2]; dose 20 mg · kg^−1", "value": 108},
      {"measurement": "concentration at 8 h", "setting": "[2]; 20 mg/kg single oral administration, feces collected at 8 h, read-out: levels in feces", "value": 13000, "unit": "ng/g"},
      {"measurement": "Drug concentration in fecal samples (mg kg^−1 feces)", "setting": "[2]; single oral gavage, dose 20 mg · kg^−1, feces collected after 8 h", "value": 13, "unit": "mg/kg"},
      {"measurement": "reduction of C. difficile stationary-phase growth", "setting": "[3]", "value": 2, "unit": "log10"},
      {"measurement": "cell surface by scanning-electron microscopy", "setting": "C. difficile ATCC43255", "value": "bleb formation on the surface was evident"}
    ]},
    {"smiles": "O=C(Nc1ncco1)c1ccnc(-c2ccc(Cl)c(Cl)c2)c1", "note": "[Compound 4, 2-(3,4-Dichlorophenyl)-N-(oxazol-2-yl)isonicotinamide]", "values": [
      {"measurement": "Conc. feces/MIC", "setting": "[2]; dose 20 mg · kg^−1", "value": 11},
      {"measurement": "concentration at 8 h", "setting": "[2]; [5]", "value": 2800, "unit": "ng/g"}
    ]},
    {"smiles": "O=C(Nc1ncco1)c1cc(-c2ccc(Cl)c(Cl)c2)ccn1", "note": "[Compound 87, 4-(3,4-Dichlorophenyl)-N-(oxazol-2-yl)picolinamide]", "values": [
      {"measurement": "Conc. feces/MIC", "setting": "[2]; dose 10 mg · kg^−1", "value": 6.6},
      {"measurement": "concentration at 8 h", "setting": "[2]; single oral gavage, dose 10 mg · kg^−1, feces collected after 8 h, read-out: Drug concentration in fecal samples (mg kg^−1 feces)", "value": 790, "unit": "ng/g"}
    ]},
    {"smiles": "O=C(Nc1ncco1)c1cc(Oc2cccc(OC(F)(F)F)c2)ccn1", "note": "[Compound 108, N-(Oxazol-2-yl)-4-(3-(trifluoromethoxy)phenoxy)picolinamide]", "values": [
      {"measurement": "Conc. feces/MIC", "setting": "[2]; dose 20 mg · kg^−1", "value": 49},
      {"measurement": "concentration at 8 h", "setting": "[2]; [5]", "value": 49000, "unit": "ng/g"}
    ]},
    {"smiles": "CCc1c(Cl)c(O)c(Cl)c(O)c1C(=O)O[C@H]1[C@H](O)[C@H](OC)[C@H](OC/C2=C\\C=C\\C[C@H](O)/C(C)=C/[C@H](CC)[C@@H](O[C@@H]3OC(C)(C)[C@@H](OC(=O)C(C)C)[C@H](O)[C@@H]3O)/C(C)=C/C(C)=C/C[C@@H]([C@@H](C)O)OC2=O)O[C@@H]1C", "note": "[FDX, fidaxomicin, reference compound]", "values": [
      {"measurement": "Recurrence of CDI", "setting": "CDI", "value": 15, "unit": "%"}
    ]},
    {"smiles": "CN[C@H](CC(C)C)C(=O)N[C@H]1C(=O)N[C@@H](CC(N)=O)C(=O)N[C@H]2C(=O)N[C@H]3C(=O)N[C@H](C(=O)N[C@H](C(=O)O)c4cc(O)cc(O)c4-c4cc3ccc4O)[C@H](O)c3ccc(c(Cl)c3)Oc3cc2cc(c3O[C@@H]2O[C@H](CO)[C@@H](O)[C@H](O)[C@H]2O[C@H]2C[C@](C)(N)[C@H](O)[C@H](C)O2)Oc2ccc(cc2Cl)[C@H]1O", "note": "[VAN, vancomycin, reference compound]", "values": [
      {"measurement": "increase of MIC on serial passage", "setting": "[1]", "value": 8, "unit": "fold"},
      {"measurement": "MIC", "setting": "[1]; C. difficile ATCC43255, sub-MIC concentrations, 25 passages, read-out: MIC after serial passage", "value": 4, "unit": "µg/mL"},
      {"measurement": "Recurrence of CDI", "setting": "CDI", "value": 25, "unit": "%"},
      {"measurement": "reduction of C. difficile stationary-phase growth", "setting": "[3]", "value": 1, "unit": "log10"},
      {"measurement": "cell surface by scanning-electron microscopy", "setting": "C. difficile ATCC43255", "value": "altered"},
      {"measurement": "recurrence of infection (loss of body weight)", "setting": "C. difficile ATCC 43255", "value": "recurrence of infection is observed"}
    ]}
  ]
}
